Consider twelve compounds from US20240408169A1 (priority 2023, published 2024).

Structures are written as SMILES. pIC50: −log10 of the molar value. *1 amine or outer side, *2 acyl side, *3 side chain or, on linkers, in order; H or OH if unused. Where a SMILES comes first, the peptide text is derived from it. Bridges are numbered along the chain shown (N, C = ends). [ ]: non-standard residue; d: D form. The star is where a group is joined. X48 = CN(C)C[C@H]1CN(c2ccc(-c3ccc(Cl)cc3C[C@@H](C(=O)[*:2])N(C)[*:1])cc2)CCO1; NMePhe(2-(4-MorPh),5-Cl) = CN[C@@H](Cc1cc(Cl)ccc1-c1ccc(N2CCOCC2)cc1)C(=O)O; X1 = C[C@H]1CN(c2ccc(-c3ccc(Cl)cc3C[C@@H](C(=O)[*:2])N(C)[*:1])cc2)CCN1C; X23 = CCN([C@@H](Cc1cc(Cl)ccc1-c1ccc(N2CCN(C)CC2)cc1)C(=O)[*:2])[*:1]; X59 = CC(c1ccc(-c2ccc(Cl)cc2C[C@@H](C(=O)[*:2])N(C)[*:1])cc1)N1CCOCC1; X32 = CN([C@@H](Cc1cc(Cl)ccc1-c1ccc(N2CCOCC2=O)cc1)C(=O)[*:2])[*:1]; X49 = CN1CCc2ccc(-c3ccc(Cl)cc3C[C@@H](C(=O)[*:2])N(C)[*:1])cc2C1; X56 = CN1CCc2cc(-c3ccc(Cl)cc3C[C@@H](C(=O)[*:2])N(C)[*:1])ccc2C1; NMehhhLys(Me) = CN([C@@H](CCCCCCCN(C)[*:3])C(=O)[*:2])[*:1]; X41 = CN([C@@H](Cc1cc(Cl)cc2c1ccn2C)C(=O)[*:2])[*:1]; cBuCO(3,3-F2-1-CF3) = O=C(C1(C(F)(F)F)CC(F)(F)C1)*; Pro(trans-4-F) = O=C(O)[C@@H]1C[C@@H](F)CN1; Gly(cPr) = N[C@H](C(=O)O)C1CC1; X102 = C[C@]1(C(=O)*)CC1(F)F; X9 = C[C@@]1(C(=O)*)CC1(F)F; X20 = O=C(C1(Cl)CC1)*

For one test, the target named is T1, CyclinA2/CDK2 (Homo sapiens, UniProt P20248).
T1 construct: purchased CRELUX Protein Services
The experiment in a line: Fluorescence Polarization (FP) competitive binding assay, Cyclin A2/Cdk2.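 Also: plates equilibrated two hours at room temperature before polarization reading, IC50 fitted from eight-concentration compound titration curves.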 Conditions: 8 nM Cyclin A2/Cdk2, 2 nM FAM probe; average of 2-3 independent experiments; read-out: Cyclin A FP IC50.

The target in another test is T2, CyclinB1/CDK1 (Homo sapiens, UniProt P14635).
T2 construct: purchased Eurofins, discovery 14-450
The test is described as follows: Fluorescence Polarization (FP) competitive binding assay, Cyclin B1/Cdk1.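 Also: fluorescence polarization read after equilibration at room temperature, with IC50 taken from serially diluted dose-response curves.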 Particulars: 10 nM Cyclin B1/Cdk1, 2 nM FAM probe; average of 2-3 independent experiments; read-out: Cyclin B FP IC50. For orientation: Polarisation of emitted light reports the rotation of a fluorescent probe.

Another test deals with T3, CyclinE1/CDK2 (Homo sapiens, UniProt P24864).
T3 construct: purchased Eurofins, discovery 14-475
The test is described as follows: Fluorescence Polarization (FP) competitive binding assay, Cyclin E1/Cdk2.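 Also: readings taken after two-hour equilibration at room temperature in HEPES buffer with NaCl, DTT, NP-40 and BSA, IC50 fitted from eight-concentration serial dilution series.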 Conditions: 10 nM Cyclin E1/Cdk2, 2 nM FAM probe; average of 2-3 independent experiments; read-out: Cyclin E FP IC50.

A further test has as its system WI-38 cells. The experiment in a line: MTT proliferation assay, WI-38.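 Also: Eight- or ten-point dilution series, with exposure length chosen to span about three to four cell doublings.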 Format: cell-based. Particulars: 3 days compound exposure, 1:3 serial dilution starting at 10 μM. In general terms: Formazan colour is commonly taken as a measure of viable cells.
Another test deals with NCI-H1048 cells. The test is described as follows: MTT proliferation assay, NCI-H1048.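 Also: Dose-response in 96-well plates over 8 or 10 concentration points, with exposure spanning 3-4 cell doublings.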 Conditions: 5 days compound exposure, 1:3 serial dilution starting at 10 μM. Format: cell-based.
The test system of a further test is OVCAR3 cells. The experiment in a line: MTT proliferation assay, OVCAR3.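 Also: compound given as an 8- or 10-point series, one day after plating, with exposure covering roughly 3-4 cell doublings.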 In kind it is cell-based. Conditions: 5 days compound exposure, 1:3 serial dilution starting at 10 μM.

As usually defined, the pIC50 is the IC50 on a negative log10 scale, so that one unit is a factor of ten. The term GI50 denotes the concentration at which growth is held to half of that of the control. A lower GI50 goes with more potent growth inhibition. In the case of `CC(C)C[C@@H]1NC(=O)[C@@H](N(C)C(=O)[C@@H](NC(=O)[C@@H]2C[C@@H](F)CN2C(=O)C2(C(F)(F)F)CC(F)(F)C2)C2CC2)CCCCCCCN(C)C(=O)[C@H](Cc2cc(Cl)cc3c2ccn3C)N(C)C1=O` [Example 393] ({cBuCO(3,3-F2-1-CF3)}-[Pro(trans-4-F)][Gly(cPr)][NMehhhLys(Me)]L[X41]; lactam 3-C), the pIC50 on CyclinA2/CDK2 was 5.18; at CyclinB1/CDK1, 7.33; at CyclinE1/CDK2, 5.77. The GI50 is 13700 nM with WI-38 cells, 1790 nM with NCI-H1048 cells and 1310 nM in the test on OVCAR3 cells.
For the compound `CC(C)C[C@@H]1NC(=O)C(N(C)C(=O)[C@@H](NC(=O)[C@@H]2C[C@@H](F)CN2C(=O)C2(C(F)(F)F)CC(F)(F)C2)C2CC2)C/C=C\CCCCN(C)C(=O)[C@H](Cc2cc(Cl)ccc2-c2ccc(N3CCN(C)CC3)cc2)N(C)C1=O` (stereo partly drawn) [Example 397], the pIC50 on CyclinA2/CDK2 was 7.70; on CyclinB1/CDK1, 7.70; on CyclinE1/CDK2, 6.59. The GI50 in the test with WI-38 cells worked out at 3560 nM; with NCI-H1048 cells, 10 nM; with OVCAR3 cells, 10 nM.
For the compound `CC(C)C[C@@H]1NC(=O)[C@@H](N(C)C(=O)[C@@H](NC(=O)[C@@H]2C[C@@H](F)CN2C(=O)C2(Cl)CC2)C2CC2)CCCCCCCN(C)C(=O)[C@H](Cc2cc(Cl)ccc2-c2ccc(N3CCOCC3)cc2)N(C)C1=O` [Example 398] (X20-[Pro(trans-4-F)][Gly(cPr)][NMehhhLys(Me)]L[NMePhe(2-(4-MorPh),5-Cl)]; lactam 3-C), the pIC50 is 7.70 at CyclinA2/CDK2, 7.70 at CyclinB1/CDK1 and 6.23 on CyclinE1/CDK2. The GI50 in the test with WI-38 cells is 3640 nM; in the test with NCI-H1048 cells, 140 nM; in the test with OVCAR3 cells, 190 nM.
As for `CC(C)C[C@@H]1NC(=O)[C@@H](N(C)C(=O)[C@@H](NC(=O)[C@@H]2C[C@@H](F)CN2C(=O)[C@]2(C)CC2(F)F)C2CC2)CCCCCCCN(C)C(=O)[C@H](Cc2cc(Cl)ccc2-c2ccc(N3CCOCC3)cc2)N(C)C1=O` [Example 399] (X9-[Pro(trans-4-F)][Gly(cPr)][NMehhhLys(Me)]L[NMePhe(2-(4-MorPh),5-Cl)]; lactam 3-C), the pIC50 at CyclinA2/CDK2 is 7.15; on CyclinB1/CDK1, 7.70; at CyclinE1/CDK2, 5.52. The GI50 in the test with WI-38 cells was found to be 3650 nM; in the test with NCI-H1048 cells, 220 nM; in the test on OVCAR3 cells, 110 nM.
As to `CC(C)C[C@@H]1NC(=O)[C@@H](N(C)C(=O)[C@@H](NC(=O)[C@@H]2C[C@@H](F)CN2C(=O)[C@@]2(C)CC2(F)F)C2CC2)CCCCCCCN(C)C(=O)[C@H](Cc2cc(Cl)ccc2-c2ccc(N3CCOCC3)cc2)N(C)C1=O` [Example 400] (X102-[Pro(trans-4-F)][Gly(cPr)][NMehhhLys(Me)]L[NMePhe(2-(4-MorPh),5-Cl)]; lactam 3-C), the pIC50 at CyclinA2/CDK2 is 7.70; at CyclinB1/CDK1, 7.70; at CyclinE1/CDK2, 6.31. Besides, the results for the GI50 with WI-38 cells, with NCI-H1048 cells and with OVCAR3 cells were 4610 nM, 10 nM and 10 nM, respectively.
For `CC(C)C[C@@H]1NC(=O)[C@@H](N(C)C(=O)[C@@H](NC(=O)[C@@H]2C[C@@H](F)CN2C(=O)C2(C(F)(F)F)CC(F)(F)C2)C2CC2)CCCCCCCN(C)C(=O)[C@H](Cc2cc(Cl)ccc2-c2ccc(C(C)N3CCOCC3)cc2)N(C)C1=O` (stereo partly drawn) [Example 403] ({cBuCO(3,3-F2-1-CF3)}-[Pro(trans-4-F)][Gly(cPr)][NMehhhLys(Me)]L[X59]; lactam 3-C), the negative logarithm of the IC50 (pIC50) at CyclinA2/CDK2 was 7.70; at CyclinB1/CDK1, 7.70; at CyclinE1/CDK2, 6.17. Also, the GI50 is 3990 nM in the test on WI-38 cells, 10 nM in the test with NCI-H1048 cells and 10 nM in the test on OVCAR3 cells.
In the case of `CCN1C(=O)[C@H](CC(C)C)NC(=O)[C@@H](N(C)C(=O)[C@@H](NC(=O)[C@@H]2C[C@@H](F)CN2C(=O)C2(C(F)(F)F)CC(F)(F)C2)C2CC2)CCCCCCCN(C)C(=O)[C@@H]1Cc1cc(Cl)ccc1-c1ccc(N2CCN(C)CC2)cc1` [Example 405] ({cBuCO(3,3-F2-1-CF3)}-[Pro(trans-4-F)][Gly(cPr)][NMehhhLys(Me)]L[X23]; lactam 3-C), the pIC50 on CyclinA2/CDK2 is 7.30; at CyclinB1/CDK1, 7.70; at CyclinE1/CDK2 it was 5.59. The GI50 was 2160 nM with WI-38 cells, 40 nM in the test on NCI-H1048 cells and 50 nM in the test on OVCAR3 cells.
Turning to `CC(C)C[C@@H]1NC(=O)[C@@H](N(C)C(=O)[C@@H](NC(=O)[C@@H]2C[C@@H](F)CN2C(=O)C2(C(F)(F)F)CC(F)(F)C2)C2CC2)CCCCCCCN(C)C(=O)[C@H](Cc2cc(Cl)ccc2-c2ccc3c(c2)CN(C)CC3)N(C)C1=O` [Example 406] ({cBuCO(3,3-F2-1-CF3)}-[Pro(trans-4-F)][Gly(cPr)][NMehhhLys(Me)]L[X49]; lactam 3-C), the figures for the pIC50 on CyclinA2/CDK2, on CyclinB1/CDK1 and on CyclinE1/CDK2 were 7.70, 7.70 and 5.75, respectively. Besides, the GI50 came to 3350 nM with WI-38 cells, 20 nM in the test on NCI-H1048 cells and 40 nM in the test on OVCAR3 cells.
`CC(C)C[C@@H]1NC(=O)[C@@H](N(C)C(=O)[C@@H](NC(=O)[C@@H]2C[C@@H](F)CN2C(=O)C2(C(F)(F)F)CC(F)(F)C2)C2CC2)CCCCCCCN(C)C(=O)[C@H](Cc2cc(Cl)ccc2-c2ccc3c(c2)CCN(C)C3)N(C)C1=O` [Example 407] ({cBuCO(3,3-F2-1-CF3)}-[Pro(trans-4-F)][Gly(cPr)][NMehhhLys(Me)]L[X56]; lactam 3-C): the pIC50 is 7.70 at CyclinA2/CDK2, 7.70 on CyclinB1/CDK1 and 5.84 on CyclinE1/CDK2. The values for the GI50 in the test with WI-38 cells, with NCI-H1048 cells and in the test with OVCAR3 cells were 3010 nM, 10 nM and 20 nM, respectively.
In the case of `CC(C)C[C@@H]1NC(=O)[C@@H](N(C)C(=O)[C@@H](NC(=O)[C@@H]2C[C@@H](F)CN2C(=O)C2(C(F)(F)F)CC(F)(F)C2)C2CC2)CCCCCCCN(C)C(=O)[C@H](Cc2cc(Cl)ccc2-c2ccc(N3CCOCC3=O)cc2)N(C)C1=O` [Example 408] ({cBuCO(3,3-F2-1-CF3)}-[Pro(trans-4-F)][Gly(cPr)][NMehhhLys(Me)]L[X32]; lactam 3-C), the pIC50 at CyclinA2/CDK2 is 7.70; at CyclinB1/CDK1, 7.70; at CyclinE1/CDK2, 6.29. For the same compound, the GI50 with WI-38 cells was 5530 nM; with NCI-H1048 cells, 10 nM; in the test with OVCAR3 cells, 10 nM.
Regarding `CC(C)C[C@@H]1NC(=O)[C@@H](N(C)C(=O)[C@@H](NC(=O)[C@@H]2C[C@@H](F)CN2C(=O)C2(C(F)(F)F)CC(F)(F)C2)C2CC2)CCCCCCCN(C)C(=O)[C@H](Cc2cc(Cl)ccc2-c2ccc(N3CCN(C)[C@@H](C)C3)cc2)N(C)C1=O` [Example 409] ({cBuCO(3,3-F2-1-CF3)}-[Pro(trans-4-F)][Gly(cPr)][NMehhhLys(Me)]L[X1]; lactam 3-C), the pIC50 on CyclinA2/CDK2 is 7.70; at CyclinB1/CDK1, 7.70; at CyclinE1/CDK2, 6.17. Further, the figures for the GI50 with WI-38 cells, in the test with NCI-H1048 cells and with OVCAR3 cells were 2460 nM, 10 nM and 10 nM, respectively.
Regarding `CC(C)C[C@@H]1NC(=O)[C@@H](N(C)C(=O)[C@@H](NC(=O)[C@@H]2C[C@@H](F)CN2C(=O)C2(C(F)(F)F)CC(F)(F)C2)C2CC2)CCCCCCCN(C)C(=O)[C@H](Cc2cc(Cl)ccc2-c2ccc(N3CCO[C@@H](CN(C)C)C3)cc2)N(C)C1=O` [Example 410] ({cBuCO(3,3-F2-1-CF3)}-[Pro(trans-4-F)][Gly(cPr)][NMehhhLys(Me)]L[X48]; lactam 3-C), the pIC50 on CyclinA2/CDK2 was 7.70; at CyclinB1/CDK1 it was 7.70; at CyclinE1/CDK2 it was 6.19. The GI50 turned out to be 2000 nM in the test on WI-38 cells, 10 nM in the test on NCI-H1048 cells and 10 nM in the test with OVCAR3 cells.
